# Measurements reported in patent US20240400584A1, “COMPOUNDS AND METHODS FOR MODULATING SPLICING” (REMIX THERAPEUTICS INC., priority 2021, published 2024).
# Key:
# Target C = test: Gene panel canonical junction qPCR assay, Target C CJ mRNA (Table 7); format: cell-based, human; conditions: Homo sapiens, read-out: Target C CJ mRNA decrease IC50
# How it was run: (§1)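 A673/K562 cells + cpd → lysate → cDNA → qPCR, CY5 5′ nuclease probe set overlapping canonical junction. Normalized to GAPDH/GUSB/PPIA and DMSO via ΔΔCt, RQ → % response over fixed ΔCt window. IC50 = 50% CJ decrease, 4PL fit.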
# HTT [1] = test: RT-qPCR splicing assay, HTT AJ/CJ mRNA; format: cell-based, human; conditions: Homo sapiens, 24 h, A673 or K562 cells; for IC50: decrease in canonical junction mRNA; for AC50: increase in alternative junction mRNA
# How it was run: (§2)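 Splicing switch scored as change in CJ and AJ isoform levels, by RT-qPCR on lysates of A673 or K562 cells dosed 24 h (top concentration 10 uM, DMSO at most 0.25%). ΔΔCt relative to DMSO wells was converted to RQ and then to percentage response.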
# SMN2 = test: Gene panel canonical junction qPCR assay, SMN2 CJ mRNA (Table 7); format: cell-based; conditions: Homo sapiens, read-out: SMN2 CJ mRNA decrease IC50
# How it was run: as §1
# MYB = test: RT-qPCR splicing assay, MYB AJ/CJ mRNA; format: cell-based; conditions: Homo sapiens, A673 or K562 cells, 24 hours; for IC50: decrease in canonical junction mRNA; for AC50: increase in alternative junction mRNA
# How it was run: as §2
# HTT [2] = test: Gene panel canonical junction qPCR assay, HTT CJ mRNA (Table 7); format: cell-based, human; conditions: Homo sapiens, read-out: HTT CJ mRNA decrease IC50
# How it was run: as §1
SMILES,IC50 (Target C) [nM],IC50 (HTT [1]) [nM],AC50 (HTT [1]) [nM],IC50 (SMN2) [nM],IC50 (MYB) [nM],AC50 (MYB) [nM],IC50 (HTT [2]) [nM]
COc1cc(-c2ccc3c(c2)COc2nc(N(C)[C@@H]4C[C@H]5CC[C@@H](C4)N5)ccc2-3)cnn1 [Compound 159],< 100,< 100,< 100,< 100,< 100,< 100,< 100
CN(c1ccc2c(n1)OCc1cc(-c3cnn(C)c(=O)c3)ccc1-2)[C@@H]1C[C@H]2CC[C@@H](C1)N2 [Compound 160],< 100,< 100,< 100,< 100,100 to 1000,< 100,< 100
CN(c1ccc2c(n1)OCc1cc(-c3cnc(=O)[nH]c3)ccc1-2)[C@@H]1C[C@H]2CC[C@@H](C1)N2 [Compound 161],> 10000,> 10000,> 10000,> 10000,> 10000,> 10000,> 10000
CN(c1ccc2c(n1)OCc1cc(-c3cc(=O)n(C)cn3)ccc1-2)[C@@H]1C[C@H]2CC[C@@H](C1)N2 [Compound 162],< 100,< 100,< 100,< 100,100 to 1000,< 100,< 100
CN(c1ccc2c(n1)OCc1cc(-n3ccnc3)ccc1-2)[C@@H]1C[C@H]2CC[C@@H](C1)N2 [Compound 163],100 to 1000,< 100,< 100,< 100,100 to 1000,< 100,< 100
Cc1cn(-c2ccc3c(c2)COc2nc(N(C)[C@@H]4C[C@H]5CC[C@@H](C4)N5)ccc2-3)cn1 [Compound 164],100 to 1000,< 100,< 100,< 100,100 to 1000,100 to 1000,< 100
CC1(C)CC(Nc2ccc3c(n2)OCc2cc(-n4cccn4)ccc2-3)CC(C)(C)N1 [Compound 165],100 to 1000,100 to 1000,100 to 1000,< 100,1000 to 10000,100 to 1000,100 to 1000
c1cnn(-c2ccc3c(c2)COc2nc(NC4CNC4)ccc2-3)c1 [Compound 166],> 10000,> 10000,> 10000,1000 to 10000,> 10000,> 10000,> 10000
Cc1cnc(-c2ccc3c(c2)COc2nc(N(C)[C@@H]4C[C@H]5CC[C@@H](C4)N5)ccc2-3)o1 [Compound 206],1000 to 10000,100 to 1000,100 to 1000,100 to 1000,100 to 1000,1000 to 10000,100 to 1000
c1cc2c(cc1-c1cn[nH]c1)COc1nc(O[C@@H]3C[C@H]4CC[C@@H](C3)N4)ccc1-2 [Compound 218],100 to 1000,< 100,< 100,< 100,100 to 1000,100 to 1000,< 100
"COc1cc(-c2ccc3c(c2)COc2nc(N4CCC(NC5(C)CCC5)C4)ccc2-3)cnn1 (centres unmarked) [Compound 285, 1-[8-(6-methoxypyridazin-4-yl)-6H-isochromeno[3,4-b]pyridin-3-yl]-N-(1-methylcyclobutyl)pyrrolidin-3-amine]",100 to 1000,< 100,100 to 1000,< 100,100 to 1000,100 to 1000,< 100
CC(C)Oc1cnnc(-c2ccc3c(c2)COc2nc(N4CCC(NC(C)(C)C)C4)ccc2-3)c1 (centres unmarked) [Compound 286],> 10000,> 10000,> 10000,> 10000,> 10000,> 10000,> 10000
COc1cc(-c2ccc3c(c2)COc2nc(N4CCN[C@@H](C)C4)ccc2-3)cnn1 [Compound 287],1000 to 10000,100 to 1000,100 to 1000,100 to 1000,1000 to 10000,1000 to 10000,100 to 1000
"COc1cc(-c2ccc3c(c2)COc2nc(O[C@@H]4C[C@H]5COC[C@@H](C4)N5)ccc2-3)cnn1 [Compound 290, (exo)-7-{[8-(6-methoxypyridazin-4-yl)-6H-isochromeno[3,4-b]pyridin-3-yl]oxy}-3-oxa-9-azabicyclo[3.3.1]nonane]",100 to 1000,< 100,100 to 1000,< 100,100 to 1000,100 to 1000,< 100
COc1cc(-c2ccc3c(c2)COc2nc(N4CCC(N5CCCC5)C4)ccc2-3)cnn1 (centres unmarked) [Compound 305],1000 to 10000,100 to 1000,100 to 1000,100 to 1000,1000 to 10000,1000 to 10000,100 to 1000
"COc1cc(-c2ccc3c(c2)COc2nc(N4CCC(N(C)C)C4)ccc2-3)cnn1 (centres unmarked) [Compound 306, 1-[8-(6-methoxypyridazin-4-yl)-6H-isochromeno[3,4-b]pyridin-3-yl]-N,N-dimethylpyrrolidin-3-amine]",1000 to 10000,100 to 1000,1000 to 10000,100 to 1000,1000 to 10000,1000 to 10000,100 to 1000
"COc1cc(-c2ccc3c(c2)COc2nc(N4CCC(N(C)C5CCC5)C4)ccc2-3)cnn1 (centres unmarked) [Compound 307, N-cyclobutyl-1-[8-(6-methoxypyridazin-4-yl)-6H-isochromeno[3,4-b]pyridin-3-yl]-N-methylpyrrolidin-3-amine]",100 to 1000,100 to 1000,100 to 1000,< 100,1000 to 10000,100 to 1000,100 to 1000
